In US11459311B2, “Pharmaceutical composition containing indirubin derivative as active ingredient” (CK Regeon Inc., priority 2017, dated 2022):
Like-named read-outs stand apart in the source and are kept apart here.

Columns and labels:
[1] = system: ATDC5 cells (chondrocytes); experiment: MTT reduction analysis; type: cell-based, Murine; settings: 24 hours treatment
Experimental: (§1) The ATDC5 cell (Murine constant cell line) was cultured in the DMEM (Dulbecco's modified Eagle's medium, Gibco, Grand Island, N.Y.) containing 5% Fetal Bovine Serum (FBS) and 1% penicillin/streptomycin under conditions of 37° C. and 5% CO2.
When the cells were stably attached after 5×10^3 ATDC5 cells were stuck in 96 well plate, the drug (here is 6-bromoindirubin-3′-oxime) was treated. After 24 hours, transfer to a medium containing 100 μg/ml MTT [3-(4,5-dimethylthiazol-2-yl)-2,5-diphenyletrazoliumbromide)] and incubate the cells for 2 hours before removing the growth medium. The MTT, which was reduced to purple formazan, was dissolved with DMSO and then excreted at 540 nm by ab absorbance measurement.
FIG. 3B is a graph of MTT reduction analysis of chondrocytes after treatment of different concentration of 6-bromoindirubin-3′-oxime to confirm if the reduction in the length of longitudinal bone treated with 6-bromoindirubin-3′-oxime in Comparative Example 6 is related to the effect on the survival rate of chondrocytes.
MTT reduction assay is a method to measure the viability of cells by analyzing the difference in absorbance due to the reduction of yellow MTT to purple formazan caused by mitochondrial enzyme reaction in living cells.

longitudinal bone = experiment: ex-vivo longitudinal bone culture, length measurement; type: cell-based, C57BL/6 mice; settings: for length of the longitudinal bone increased more effectively than by comparative indirubin derivatives: versus Comparative Examples 8, 9 and 10-12; for increase of the length of the long bone relative to the control group: printed as about two times (180%)
Experimental: Longitudinal bones were isolated from 15.5 embryonic day C57BL/6 mice and incubated for 7 days in a 24-well tissue culture dish. Medium was used as Minimal Essential Medim (α-MEM, Gibco) including 10% fetal bovine serum (FBS), 1 mM beta polyglycerol disodium phosphate, 50 ng/ml ascorbic acid, 0.3 g/L-glutamine, 0.2% BSA, 100 U/ml penicillin, 100 μg/ml streptomycin. After the longitudinal bone was separated from the mouse, the longitudinal bone isolated from the medium was incubated for 24 hours, and the drug was treated. The medium and the drug (here are Example 1, Example 2, Comparative Examples 1, 7-9 and indirubin derivatives of 10-12) were changed every other day. The length of the longitudinal bone was measured before and after treatment with the drug. The longitudinal bone tissue after drug treatment was marched with PBS and fixed using 4% formaldehyde.
In order to more precisely determine the effect of indirubin derivatives in Example 1 or Example 2 of the present invention and other indirubin derivatives on the culture of ex-vivo longintudinal bone, various indirubin derivatives (Examples 1 and 2 and comparison Example 1, 8, 9, 10-12 indirubin derivatives) were treated as in Experimental Method 6, and the length of the longitudinal bone was measured.
FIG. 1 is a photograph of the longitudinal bone cultured at each ex-vivo when treated with indirubin induction in Example 1, Example 2, and Comparison Example 1, 8, 9, 10-12. FIG. 2 is a graph and table showing the variation in the length of the longitudinal bone measured in FIG. 1. In this case, the drooping indirubin derivatives were identical at 0.5 μM and treated in culture medium for 6 days.
We sought to determine more accurately the effect of 6-bromoindirubin-3′-oxime (Comparative Example 6) on the culture of ex-vivo longitudinal bone. FIG. 3A is a photograph (left) of a longitudinal bone culture in ex-vivo and a graph showing the numerical value when treated with 6-bromoindirubin-3′-oxime of Comparative Example 6 (right). At that time, 0.5 μM 6-bromoindirubin-3′-oxime was treated in culture medium for 6 days. The control is longitudinal bone treated with DMSO solution instead of drug.

β-catenin [2] = experiment: Immunocytochemistry of β-catenin expression and localization in ATDC5 cells; type: cell-based, Murine; settings: 24 hours treatment, ICC
Experimental: as §1
Drugs (here are 5,6-dichloroindirubin-3′-methoxime, 5-methoxylindirubin-3′-oxime) were treated for 24 hours when the cells were securely attached to the cover glass that was placed in the 12 well plate at a density of 2.5×10^4 cells per well. Cells were cleaned with phosphoric acid buffer solution and fixed at room temperature for 20 minutes by adding 4% paraformaldehyde, and then a protein expressed in the cells was observed through the process of permeabilization, blocking and immunofluorescence.
FIG. 6 is a photograph confirming the β-catenin concentration in the ATDC5 cells treated with 5,6-dichloroindirubin-3′-methoxime of Example 1 and 5-methoxylindirubin-3′-oxime of Example 2 by immunocytochemistry. In other words, the expression and localization of β-catenin in ATDC5 cells were confirmed through ICC.

[3] = system: osteoblasts and chondrocytes; experiment: toxicity to osteoblasts and chondrocytes; type: cell-based
[4] = system: ALP (alkaline phosphatase); experiment: ALP activity assay in MC3T3-E1 cells; type: cell-based, Mouse; settings: for increase of ALP activity: MC3T3-E1 cells, differentiation medium, 48 hours, versus control
Experimental: (§2) The MC3T3-E1 cell (Mouse osteoblastic cell line) was cultivated under conditions of 37° C. and 5% CO2 at the minimal essential media (α-MEM) (Gibco) containing 10% prenatal serum and 1% penicillin/streptomycin. For the test of differentiation induction, cells were cultivated in α-MEM mediums containing 50 μg/ml ascorbic acid and 100 mM β-glycerophosphate.
5×10^4 MC3T3-E1 cells were incubated on a 24 well plate for two days and stuck. After confirming that the cells reached 100% confluency, the medications (5,6-dichloroindirubin-3′-methoxime in Example 1) were treated in the differentiation medium for 48 hours. The cells were cleaned with a phosphoric acid buffer solution and the samples harvested were treated with a buffer solution (pH 10.3) containing 50 mM Tris-chloric acid, 100 mM glisin and p-nitro phenylpospate after cell lysis. For analysis, 3 M sodium hydroxide was treated, and absorbance was measured at 405 nm. The ALP activity was quantified by measuring the protein concentration using Bradford Analyzer.
ALP activity analysis was performed as Experimental Method 5 to determine the effect of 5,6-dichloroindirubin-3′-methoxime in Example 1 and 5-methoxylindirubin-3′-oxime in Example 2 on bone mineral density. FIG. 4 is a table showing the measured a graph showing ALP activity in cells and a table showing the degree of ALP activity in cells treated with 5,6-dichloroindirubin-3′-methoxime of Example 1 according to the present invention, 5-methoxylindirubin-3′-oxime of Example 2, indirubin derivatives of Comparative Examples 1-5 and 12. The control is the ALP activity in the cells prior to drug treatment.

β-catenin [5] = experiment: Western blot for β-catenin stabilization in MC3T3-E1 cells; type: cell-based, Mouse; settings: 24 hours treatment
Experimental: as §2
For Western blot analysis, drugs (here are 5,6-dichloroindirubin-3′-methoxime, 5-methoxylindirubin-3′-oxime) were treated 24 hours, and MC3T3-E1 cells were cultured and harvested in a culture dish to reach 100% confluency. Harvested samples for immunoblot was performed to quantify the protein was after cell lysis, using SDA-PAGE gel using the antibody after electrophoresis.
FIG. 5 is the result of Western blot using MC3T3-E1 cells (osteoblast cells) to confirm the effects of 5,6-dichloroindirubin-3′-methoxime of Example 1 and 5-methoxyindirubin-3′-oxime of Example 2 on the stability of β-catenin.

[6] = oral toxicity study in mouse; settings: in vivo
Experimental: When an indirubin derivative represented by Formula 1 (5,6-dichloroindirubin-3′-methoxime) and an indirubin derivative represented by Formula 2 (5-methoxylindirubin-3′-oxime) were orally administered to a mouse for toxicity studies, they are considered to be safe substances because the 50% lethal dose (LD 50) of them are at least 1,000 mg/kg.

[7] = 0.5 μM, 6 days in culture medium

For `O=C1Nc2cc(Br)ccc2/C1=C1/Nc2ccccc2/C1=N\O` [Comparative Example 6, 6-bromoindirubin-3′-oxime], the “survival rate of chondrocytes” value ([1]; 5 μM) was “below 50%”, the “concentration at which growth of chondrocytes is inhibited” value [1] was at least 1 µM and the “length of the ex-vivo longitudinal bone compared to control group” value (longitudinal bone; 0.5 μM, 6 days in culture medium, control DMSO) was “reduced”.
With `CO/N=C1/C(=C2/C(=O)Nc3cc(Cl)c(Cl)cc32)Nc2ccccc21` [Example 1, 5,6-dichloroindirubin-3′-methoxime] the “movement of stabilized β-catenin into the nucleus” value (β-catenin [2]) was “increase the mobility of the stabilized β-catenin into the nucleus”, the “toxicity to osteoblasts and chondrocytes” value [3] was “not toxic” and the “increase of ALP activity” value [4] was about 2 fold. For the same molecule, the “stabilization of β-catenin” value (β-catenin [5]) was “significantly induced the stabilization of β-catenin”, the LD50 ([6]; orally administered, read-out: 50% lethal dose (LD 50)) was at least 1000 mg/kg and the “length of the longitudinal bone increased more effectively than by comparative indirubin derivatives” value (longitudinal bone; [7]) was “about 54%”. For the same molecule, the “increase of the length of the long bone relative to the control group” value (longitudinal bone) was about 180%.
With `COc1ccc2c(c1)/C(=C1/Nc3ccccc3/C1=N\O)C(=O)N2` [Example 2, 5-methoxylindirubin-3′-oxime] the “movement of stabilized β-catenin into the nucleus” value (β-catenin [2]) was “increase the mobility of the stabilized β-catenin into the nucleus”, the “toxicity to osteoblasts and chondrocytes” value [3] was “not toxic” and the “increase of ALP activity” value [4] was about 2 fold. The “effects on bone growth, bone thickness or both more significant than those of other indirubin derivatives” value ([4]; versus other indirubin derivatives, test not specified) was “more than 30%”, the “stabilization of β-catenin” value (β-catenin [5]) was “significantly induced the stabilization of β-catenin” and the LD50 [6] was at least 1000 mg/kg. The “length of the longitudinal bone increased more effectively than by comparative indirubin derivatives” value (longitudinal bone; [7]) was “about 54%” and the “increase of the length of the long bone relative to the control group” value (longitudinal bone) was about 180%.
